Source: US20160002240A1, “NUCLEOSIDE ANALOG SALTS WITH IMPROVED SOLUBILITY AND METHODS OF FORMING SAME” (THE BOARD OF TRUSTEES OF THE UNIVERSITY OF ALABAMA, priority 2013, published 2016)
Values joined by “and” are separate entries in the source; they are usually repeats but may differ in a detail not shown here. Equal entries are not always repeated. Where two headings read alike, the source gives them in different places. Marks after values point to notes of the source that are not given here.

Experiments:
[1] = Thermogravimetric analysis (thermal stability); type: physicochemical; settings: for T5%onset: Table 4, onset temperature of initial 5 wt % mass loss, nitrogen, 5° C./min
Description: TGA experiments were performed on a Mettler Toledo TGA/DSC1 Star unit under a stream of nitrogen. Samples (5-20 mg) were placed on a platinum pan and were heated from 25° C. to 800° C. with a constant heating rate of 5° C./min and with a 30 min isotherm at 75° C. to remove any remaining volatiles. Decomposition temperatures (T5% onset) were reported as the onset temperature with respect to the initial 5 wt % mass loss.

[2] = Solubility in simulated biological fluids (PBS, SIF, SGF); settings: for Solubility in PBS (pH = 7.4): phosphate buffer saline pH 7.4
Description: For all solvents used (water, Phosphate Buffer Solution (PBS), Simulated Gastric Fluid (SGF), Simulated Intestinal Fluid (SIF)) same amount of compound/solvent was used: 0.1 g compound/0.5 mL solvent. The solutions were stirred at room temperature for 24 h. The resulting suspensions were filtered through a 0.2 μm Teflon syringe filter to obtain clear solutions. […] Deuterated dmso (dmso-d6) containing 0.05% (v/v) TMS (as internal standard) was used to run the ^1H-NMR. 0.1 mL of the filtered solutions were combined with 0.4 mL dmso-d6 w/ 0.05% (v/v) TMS (corresponding to 1.836×10-6 mols TMS). The solubility values were determined from the molar ratio between the peaks corresponding to the compound and TMS.
Solubility experiments were conducted as described in example 12.

[3] = Solubility in deionized water, UV absorbance at 254 nm with calibration curve
Description: The UV-VIS spectra used for development of calibration curves and for determination of the solubility values were performed on a Varian CARY 3 UV-Visible Spectrophotometer.
After filtering through Teflon syringe filters 0.2 μm), UV was used to determine the absorbance at 254 nm. A calibration curve of the compound in water was used to determine the concentration.
In a vial, 5.500 g [Cho][Acy] was mixed with 2 mL DI H2O.
(§1) A calibration curve of the compound in water was used to determine the concentration.
In a vial, 0.500 g [N1,1,1,16][Acy] was suspended in 1 mL DI H2O. The mixture was stirred for 24 h at room temperature. […] After filtering through a Teflon syringe filter (0.2 μm), 0.1 mL solution was diluted to 25 mL with DI H2O and its absorbance at 254 nm was determined.
as §1
In a vial, 4.8 g [P4,4,4,4][Acy] was suspended in 2 mL DI H2O. The mixture was stirred for 24 h at room temperature.
In a vial, 0.150 g [Acy]HCl was suspended in 1 mL DI H2O. The mixture was stirred for 24 h at room temperature. […] After filtering, 0.1 mL solution was diluted to 25 mL with DI H2O and its absorbance was determined.
In a vial, 0.2 g [Acy][Doc] was suspended in 1.5 mL DI H2O. […] To about 0.3 mL of this emulsion, water was added dropwise (mixing well each time after water was added) until a more clear mixture was obtained. […] The mixture was sonicated for about 30 min; this process (add water, sonication) was repeated until a clear solution was obtained. 0.5 mL of the clear solution obtained was diluted to 50 mL with DI H2O and UV was used to determine the absorbance at 254 nm.
as §1

[4] = cited from earlier work
[5] = at 25° C.; cited from earlier work
[6] = quantitative NMR, room temperature, 24 h
[7] = simulated intestinal fluid pH 6.8 without pancreatin, quantitative NMR

Molecule | T5%onset [1] | Water solubility [3] | Water solubility mg/mL (g/L) [3] | Water solubility mol/L [3] | other results
Nc1nc2c(ncn2COCCO)c(=O)[nH]1 [[N4,4,4,4][Acy] (5)] [tetrabutylammonium acyclovir] | 132 °C | – | – | – | Solubility in PBS (pH = 7.4) [2, 6]: 1.0 mg ‘acyclovir’/mL; Solubility in SIF (pH = 6.8) [2, 7]: 144.0 mg ‘acyclovir’/mL
Nc1nc2c(ncn2COCCO)c(=O)[nH]1 [[N1,1,1,16][Acy] (3)] [trimethylhexadecylammonium acyclovir] | 150 °C | 252.18 mg/mL | 252.18 mg/mL (g/L) | 0.4957 (4) mol/L | –
CC(C)[C@H](N)C(=O)OCCOCn1cnc2c(=O)[nH]c(N)nc21 [valacyclovir] | – | – | – | – | Oral bioavailability [4]: about 55%
acyclovir docusate [[H2Acy][Doc] (7)] | – | – | – | – | Stability of emulsion in water [3]: at least 48 h
Nc1nc2c(ncn2COCCO)c(=O)[nH]1 [[P4,4,4,4][Acy] (4)] [tetrabutylphosphonium acyclovir] | 221 °C | 803.89 mg/mL | 803.89 mg/mL (g/L) | 1.6622 (41) mol/L | T5% onset (onset for 5% decomposition from TGA) [1]: 221 °C
Nc1nc2c(ncn2COCCO)c(=O)[nH]1 [Acyclovir, reference compound] | 240 °C | 1.42 mg/mL | 1.42 mg/mL (g/L) | 0.0063 (0) mol/L | Oral bioavailability [4]: 10-20%; Water solubility, literature value [5]: 5.77 mM; Solubility in PBS (pH = 7.4) ([2]; determined using UV-Vis): 1.4^b mg ‘acyclovir’/mL; Solubility in PBS (pH = 7.4) [2, 6]: 1.5 mg ‘acyclovir’/mL; Solubility in SIF (pH = 6.8) [2, 7]: 2.22 mg ‘acyclovir’/mL
Nc1nc2c(ncn2COCCO)c(=O)[nH]1 [[H2Acy][Doc] (7)] [acyclovir docusate] | 122 °C | 8.48 mg/mL | 8.47 mg/mL (g/L) | 0.0131 (0) mol/L | Solubility in deionized water, average [3]: 8.46 mg/mL; Solubility in deionized water, single determination ([3]; room temperature, stirred 24 h (acyclovir overnight), individual replicate (1st, 2nd, 3rd)): 13.06 mM and 13.05 mM; Solubility in deionized water, average ([3]; room temperature, average of replicates, text of Examples): 13.06 mM
Cl.Nc1nc2c(ncn2COCCO)c(=O)[nH]1 [[H2Acy]Cl (6), acyclovir hydrochloride] | 156 °C | – | – | – | Solubility in SGF (pH = 1.2) ([2]; pH 1.2): 292.8 mg ‘acyclovir’/mL; Solubility in SIF (pH = 6.8) ([2]; pH 6.8): 167.0 mg ‘acyclovir’/mL
Nc1nc2c(ncn2COCCO)c(=O)[nH]1 [[Cho][Acy] (1)] [choline acyclovir] | 128 °C | 1019.42 mg/mL | 1019.42 mg/mL (g/L) | 3.1045 (81) mol/L | –
Nc1nc2c(ncn2COCCO)c(=O)[nH]1 [[N4,4,4,1][Acy] (2)] [tributylmethylammonium acyclovir] | 115 °C | – | – | – | –
